In assay [1] the target is T1, human MAO-A (Homo sapiens, UniProt P21397).
T1 construct: purchased Sigma Aldrich M7316
T1 sequence (P21397 1-527): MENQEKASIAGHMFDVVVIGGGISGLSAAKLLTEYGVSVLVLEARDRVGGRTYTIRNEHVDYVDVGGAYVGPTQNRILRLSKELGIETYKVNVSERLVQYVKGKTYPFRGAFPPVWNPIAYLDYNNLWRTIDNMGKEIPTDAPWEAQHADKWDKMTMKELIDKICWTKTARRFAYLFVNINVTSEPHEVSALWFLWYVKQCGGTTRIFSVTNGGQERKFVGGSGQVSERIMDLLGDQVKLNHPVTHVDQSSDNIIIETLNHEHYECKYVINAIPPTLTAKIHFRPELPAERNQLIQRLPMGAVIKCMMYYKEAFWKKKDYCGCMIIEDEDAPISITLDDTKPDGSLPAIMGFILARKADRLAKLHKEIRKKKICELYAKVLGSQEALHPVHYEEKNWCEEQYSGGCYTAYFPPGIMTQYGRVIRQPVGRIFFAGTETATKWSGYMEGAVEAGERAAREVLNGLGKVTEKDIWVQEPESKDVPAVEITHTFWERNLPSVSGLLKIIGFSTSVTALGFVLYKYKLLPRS
Briefly: Amplex Red monoamine oxidase assay, MAO-A. The format is biochemical. The following applies: for IC50: human recombinant MAO-A, read-out: MAO-A IC50 ± SEM; for inhibition at 1 µM: read-out: MAO-A % Inhibition ± SEM at 1 µM. The method, then: The final compounds were evaluated in vitro for their human MAO-B (hMAO-B) inhibitory potencies, and selected structures were also investigated for human MAO-A (hMAO-A) inhibition.
Inhibition activity of compounds at MAO enzyme isoforms was measured via a fluorometric method using the Amplex Red Monoamine Oxidase Assay (ThermoFisher Scientific, Waltham, MA, USA #A12214) in a 96-well plates. Human recombinant MAO-B and MAO-A enzymes (Sigma Aldrich, St. Louis, MO, USA #M7441 and #M7316) were used. The assays were conducted as previously described.

A short description of assay [2]: DPPH antioxidant assay. Type of assay: physicochemical. The following applies: compound at 50 µM. The text has this:
The 2,2-diphenyl-1-picrylhydrazyl (DPPH) assay was used to determine the antioxidant properties of selected compounds using ascorbic acid, trolox, and quercetin as references. […] From a structural point of view, 21 and 22 share a common pyrimido[2,1-f]purinedione core with propyl or butyl substituents at the N1- and N3-position. Compounds 11i and 11l, containing hexyl or phenoxyethyl as N7-substituents, were the only structures in the groups of bicyclic xanthine derivatives that lacked antioxidant activity in the DPPH assay.
Antioxidant properties of considered structures were evaluated in DPPH test. The assay utilizes a stable free radical 2,2-diphenyl-1-picrylhydrazyl (DPPH). DPPH has a deep violet color in solution and strong absorption band at 520 nm. The antioxidant activity of the tested compounds was defined by their ability to induce the formation of the reduced form of DPPH. Upon reduction, DPPH color turned pale yellow, which manifested by decreased sample absorption at 520 nm and was measured in conducted experiments using EnSpire microplate reader (PerkinElmer). Antioxidant activity of xanthine derivatives and reference compounds was tested in triplicate at 50 µM concentration and normalized to the activity of reference radical scavenger—quercetin.
Figure 2 Antioxidant properties of xanthine derivatives evaluated in the DPPH test. All compounds were tested at 50 µM concentration. Results were normalized to the antioxidant activity measured for quercetin. ASC, ascorbic acid; TLX, trolox; QCT, quercetin.
For orientation: DPPH is a stable violet radical that fades when it is reduced.

Assay [3] deals with human D2L receptor (Homo sapiens, UniProt P14416). Briefly: Radioligand binding [3H]-raclopride, HEK293 membranes. Particulars: HEK293 cells, human D2; read-out: hD2 [3H]-Raclopride Ki ± SEM. As to the method:
Rat brain cortical membranes were used as source of native rat D1 receptor protein, and human D2 receptor was recombinantly expressed in HEK293 cells.
HEK293 cells with stable expression of human D2L receptor were maintained at 37 °C in a humidified atmosphere with 5% CO2 and grown in Dulbecco’s Modifier Eagle Medium containing 10% dialyzed fetal bovine serum and 500 µg/mL G418 sulfate. For membrane preparation, cells were subcultured in 150 cm^2 flasks, grown to 90% confluence, washed twice with prewarmed to 37 °C phosphate buffered saline (PBS), and pelleted by centrifugation (200× g) in PBS containing 0.1 mM EDTA and 1 mM dithiothreitol. Prior to membrane preparation, pellets were stored at −80 °C.
Cell pellets were thawed and homogenized in 10 volumes of assay buffer using an Ultra Turrax tissue homogenizer and centrifuged twice at 35,000× g for 15 min at 4 °C. The incubation buffer consisted of 50 mM Tris-HCl, 1 mM EDTA, 4 mM MgCl2, 120 mM NaCl, 5 mM KCl, 1.5 mM CaCl2, and 0.1% ascorbate. Assay was incubated in a total volume of 200 µL in 96-well microtiter plate for 1 h at 37 °C. The process of equilibration was terminated by rapid filtration through Unifilter plate with a 96-well cell harvester and radioactivity retained on the filter was quantified on a Microbeta plate reader (PerkinElmer). For competition studies, the assay samples contained radioligand 2.5 nM [^3H]-raclopride (PerkinElmer). Non-specific binding was defined with 10 µM of haloperidol. Each compound was tested in triplicate at 7 concentrations (10^−10–10^−4 M). The inhibition constants (Ki) were calculated from the Cheng–Prusoff equation [66]. Results were expressed as means of at least two separate experiments.

Assay [4] has as its target T2, human MAO-B (Homo sapiens, UniProt P27338).
T2 construct: purchased Sigma Aldrich M7441
T2 sequence (P27338 1-520): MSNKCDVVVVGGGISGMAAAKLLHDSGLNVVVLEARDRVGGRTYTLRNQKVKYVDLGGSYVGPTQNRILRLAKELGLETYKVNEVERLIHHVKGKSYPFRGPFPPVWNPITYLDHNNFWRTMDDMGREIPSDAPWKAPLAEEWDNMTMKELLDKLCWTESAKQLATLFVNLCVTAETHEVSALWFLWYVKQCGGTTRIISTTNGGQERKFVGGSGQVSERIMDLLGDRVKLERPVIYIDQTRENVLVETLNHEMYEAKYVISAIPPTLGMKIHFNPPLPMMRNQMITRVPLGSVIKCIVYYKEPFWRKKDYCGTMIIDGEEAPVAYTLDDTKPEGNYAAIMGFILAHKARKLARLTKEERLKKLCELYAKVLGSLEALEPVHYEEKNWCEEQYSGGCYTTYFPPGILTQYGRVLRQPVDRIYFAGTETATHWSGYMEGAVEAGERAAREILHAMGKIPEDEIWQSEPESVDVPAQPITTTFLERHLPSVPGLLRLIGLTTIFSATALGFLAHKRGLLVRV
As to the kind of experiment: Amplex Red monoamine oxidase assay, MAO-B. The following applies: human recombinant MAO-B; read-out: MAO-B IC50 ± SEM. The format is biochemical.

Sequence of human D2L receptor (P14416 whole entry): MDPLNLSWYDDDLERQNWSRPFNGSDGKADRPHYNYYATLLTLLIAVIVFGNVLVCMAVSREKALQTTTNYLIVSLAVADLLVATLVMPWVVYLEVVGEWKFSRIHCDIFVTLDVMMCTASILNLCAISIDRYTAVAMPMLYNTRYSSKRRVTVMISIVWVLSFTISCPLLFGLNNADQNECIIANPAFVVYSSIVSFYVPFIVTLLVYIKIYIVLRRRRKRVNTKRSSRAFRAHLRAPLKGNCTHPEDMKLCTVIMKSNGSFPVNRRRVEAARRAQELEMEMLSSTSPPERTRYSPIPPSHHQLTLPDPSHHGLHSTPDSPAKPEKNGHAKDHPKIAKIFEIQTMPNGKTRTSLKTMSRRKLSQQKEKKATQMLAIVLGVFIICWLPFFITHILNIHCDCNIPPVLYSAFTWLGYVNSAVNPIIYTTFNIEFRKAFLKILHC

In general, IC50 refers to the concentration needed to halve the response being measured. Broadly, the inhibition is the drop in the measured response relative to a control, in per cent. What is called Ki is the dissociation constant of the complex between target and ligand, obtained from inhibition or displacement. With `CCCn1c(=O)c2c(nc(NCCc3ccc(O)c(O)c3)n2CCC)n(CCC)c1=O` [Compound 12, 8-((3,4-Dihydroxyphenethyl)amino)-1,3,7-tripropyl-3,7-dihydro-1H-purine-2,6-dione], in assay [1], the IC50 is around 1000 nM and the inhibition at 1 µM came to 57%. For the same molecule, the “Antioxidative Activity [% of Quercetin Response at 50 µM ± SD]” value in assay [2] was 86 ± 3 % of Quercetin Response. In assay [3], the Ki came out at 13300 ± 2200 nM. Besides, the IC50 in assay [4] worked out at 105 ± 23 nM.
`CCCCn1c(=O)c2c(nc(NCCc3ccc(O)c(O)c3)n2CCC)n(CCCC)c1=O` [Compound 13, 1,3-Dibutyl-8-((3,4-dihydroxyphenethyl)amino)-7-propyl-3,7-dihydro-1H-purine-2,6-dione]: in assay [1], the half-inhibitory concentration (IC50) is above 1000 nM and the inhibition at 1 µM stood at 36%. Besides, the “Antioxidative Activity [% of Quercetin Response at 50 µM ± SD]” value in assay [2] is given as 61 ± 1 % of Quercetin Response. Besides, the Ki in assay [3] was 4390 ± 430 nM. Also, the IC50 in assay [4] turned out to be 81.8 ± 19.7 nM.
The corresponding values for `Cn1c(=O)c2c(nc3n2CCCN3CCc2ccc(O)c(O)c2)n(C)c1=O` [Compound 20a, 9-(3,4-Dihydroxyphenethyl)-1,3-dimethyl-6,7,8,9-tetrahydropyrimido[2,1-f]purine-2,4(1H,3H)-dione] are above 1000 nM, 29%, 68 ± 2 % of Quercetin Response, 6680 ± 870 nM and 121 ± 23 nM.
The corresponding values for `Cn1c(=O)c2c(nc3n2CCCCN3CCc2ccc(O)c(O)c2)n(C)c1=O` [Compound 20b, 10-(3,4-Dihydroxyphenethyl)-1,3-dimethyl-7,8,9,10-tetrahydro-1H-[1, 3]diazepino[2,1-f]purine-2,4(3H,6H)-dione] are above 1000 nM, 44%, 79 ± 1 % of Quercetin Response, 10700 ± 1400 nM and 101 ± 21 nM.
As to `CCCn1c(=O)c2c(nc3n2CCCN3CCc2ccc(O)c(O)c2)n(CCC)c1=O` [Compound 21, 9-(3,4-Dihydroxyphenethyl)-1,3-dipropyl-6,7,8,9-tetrahydropyrimido[2,1-f]purine-2,4(1H,3H)-dione], in assay [1], the IC50 was around 1000 nM and the inhibition at 1 µM came out at 61%. Besides, the “Antioxidative Activity [% of Quercetin Response at 50 µM ± SD]” value in assay [2] is reported as 13 ± 1 % of Quercetin Response. For the same molecule, the Ki in assay [3] is 12700 ± 2800 nM. In addition, the 50% inhibitory concentration (IC50) in assay [4] turned out to be 157 ± 39 nM.
`CCCCn1c(=O)c2c(nc3n2CCCN3CCc2ccc(O)c(O)c2)n(CCCC)c1=O` [Compound 22, 1,3-Dibutyl-9-(3,4-dihydroxyphenethyl)-6,7,8,9-tetrahydropyrimido[2,1-f]purine-2,4(1H,3H)-dione]: the IC50 in assay [1] was above 1000 nM; in assay [4], 170 ± 30 nM. In addition, the inhibition at 1 µM in assay [1] stood at 43%. Moreover, the “Antioxidative Activity [% of Quercetin Response at 50 µM ± SD]” value in assay [2] is reported as 26 ± 2 % of Quercetin Response. Moreover, in assay [3], the Ki was determined as 16600 ± 2300 nM.

The record behind these values is publication PMC10377586 (Biomolecules, 2023).
